Assay results taken from patent US6756362B2, “Methods and compositions based on inhibition of cell invasion and fibrosis by anionic polymers” (priority 1991, dated 2004).

How the values were obtained:
PC12 cells = assay: PC12 neurite outgrowth assay; assay type: cell-based; conditions: NGF-primed PC12 cells; scored 2 days later
Experimental: (§1) Cell lines. Murine 3T3 fibroblast (NIH), rat C6 glioma (Paganetti et al., 1988, J. Cell Biol. 107:2281) and MCG-28 young immortalized mouse astrocyte (a murine neonatal astrocyte line immortalized with SV-40) were grown in medium composed of Dulbecco's modified Eagle medium (DMEM), 10% fetal calf serum (Gibco Laboratories), and penicillin G/streptomycin (100 units/ml, 100 μg/ml respectively, Gibco Laboratories). For the stripe assay, confluent plates were disaggregated with 0.05% trypsin, 0.53 mM EDTA (Gibco Laboratories) and seeded at 200,000 cells/ml (3 ml/plate). For the cell adhesion assays, confluent cultures were disaggregated with 0.03% EDTA and plated in a 96-well microtiter plate at 20,000-100,000 cells per well. PC12 cells, a pheochromocytoma cell line (Green L. A. & Tischler A. S., 1976, Proc. Natl. Acad. Sci. U.S.A. 73:2424), were grown in medium containing Roswell Park Memorial Institute (RPMI) medium 1640 (Gibco Laboratories), 10% horse serum, 5% fetal calf serum (FCS), and penicillin G/streptomycin (100 units/ml, 100 μg/ml respectively, Gibco Laboratories). The cells were disaggregated with 0.03% EDTA and plated in a 96-well microtiter plate at 3,000 cells per well.
PC12 cells were primed with 20 ng/ml NGF for 8 days, collected with 0.03% EDTA in PBS and plated in precoated 96-well microtiter plates at 3,000 cells/well. The microtiter plates were precoated with poly-L-lysine and blocked with adhesion medium (1% BSA in RPMI) for 20 min prior to addition of cells. The cells were grown in adhesion medium supplemented with 20 ng/ml NGF. The cells were allowed to attach for 2 hr prior to the addition of the test compounds (Akeson and Warren, 1986, Exp. Cell Res. 162:347-362).
PC-12 cells primed with NGF were plated in 96-well plates. Test solutions were added to the wells and the cells were scored 2 days later as (+) if neurites of at least two cell bodies diameter in length were present on the majority of the cells, and (−) if no or only short processes were present. […] The compounds tested included GAGs (heparin, dermatan sulfate, chondroitin sulfate A, keratan sulfate and hyaluronic acid), sulfated carbohydrate polymers (dextran sulfate and pentosan polysulfate), and another polyanionic polymer (e.g., alginic acid).

Sulfur content = assay type: physicochemical; conditions: by weight
[1] = test system: epidural fibrosis at laminectomy site, Lewis inbred rats; assay: Epidural fibrosis after lumbar laminectomy in rats, gross evaluation; assay type: in vivo, rat; design: TOTAL SCORE / TOTAL SCORE 2 WEEKS: scale not given here; conditions: for inhibition of scar formation (in words): 20 mg/ml, versus buffer control; for TOTAL SCORE: Table 5, agent 20 mg/ml
Experimental: Epidural fibrosis was investigated after lumbar laminectomy in rats. In this model, a laminectomy was performed at the lumbar 3 and 5 vertebrae and then the test agent was applied to the laminectomy site. Subsequently, the laminectomy sites were examined for fibrosis by gross dissection or by histological analysis.
Laminectomies (described below) were performed at lumbar vertebrae L3 and L5 to provide auto-controls within each animal. Segments of GELFOAM® (Upjohn) soaked with experimental or control solutions were inserted into the laminectomy site. The soared GELFOAM® fragments were prepared and coded 24 hours beforehand. The GELFOAM® segments were soaked in solutions of dextran sulfate in calcium/magnesium-free phosphate buffered saline (CMF-PBS), dextran in CMF-PBS, or CMF-PBS alone. In some laminectomy sites, the GELFOAM® fragments were omitted, in order to serve as sham operations. Subsequently, the evaluation by gross dissection was done without knowledge of which solutions had been placed in which laminectomy site. Thus, the experiments were double-blind.
Lewis inbred rats were anesthetized with 4% chloral hydrate (34 mg/100 g body weight). The dorsal skin was incised and the paraspinal muscles were separated from the spinous processes of lumbar vertebrae L2 through L6. The spinous processes of L3 and L5 were removed with a rongeurs; then the vertebral lamina was removed with a micro-rongeurs creating a rectangular laminectomy defect 4×2 mm in size. After bleeding was stopped, a GELFOAM® segment was placed into the laminectomy site according to a randomized protocol. The overlying paraspinal muscles were closed over the site by suturing the superficial fascia together with resorbable 6-0 PDS II (Ethicon). The skin incision was closed with wound clips.
The animals were kept for two weeks prior to gross evaluation. At that time, the rats were anesthetized with 4% chloral hydrate and the wound was reopened by incising, the skin and separating the paraspinal muscles. The quality and quantity of scar tissue above the laminectomy site, the appearance of the GELFOAM® and the extent of new bone growth was evaluated by visual and tactile observation during sharp dissection. After the gross evaluation was complete, the rats were euthanized by anesthesia overdose.
All gross evaluations were made prior to breaking the treatment code, but the observations have been tabulated and presented below according to treatment group.

3T3 cells = assay: Colorimetric cell adhesion assay, 3T3; assay type: cell-based, mouse; conditions: 3T3 cells on PLL; 4 hr incubation; FIG. 7
Experimental: as §1
(§2) Microtiter plates were precoated with poly-L-lysine and blocked with 1% BSA in DMEM for 20 min prior to addition of cells. The cells were plated on the precoated 96-well plates and test compounds were added to the culture medium. Following 4-24 hr incubation at 36° C., 5% C02, in a humidified incubator, the tetrazolium salt MTT (3-(4,5-dimethylthazol-2-yl)-2,5-diphenyl tetrazolium bromide) was added. The cultures were incubated for 2 hr to allow mitochondrial succinate dehydrogenase, found in viable cells, to […] the MTT to its formazan blue reaction product. The media was aspirated and the wells were rinsed to remove all detached cells. The formazan blue reaction product in attached cells was solubilized with 0.08 N HCl in isopropanol, and the plates were read in a microtiter plate reader (Dynatech MR4000) at 570 nm with a 630 nm reference filter. The resulting optical density readings are directly related to the number of viable cells in the well (Mosmann, T., 1983, J. Immunol. Methods 65:55-63). The samples were run in 3-6 replicates per point and the SD was less than 5%.
(§3) The adhesion of fibroblasts to PLL-coated microtiter plates in the presence of test compounds in the culture medium was evaluated using an MTT assay as described in Section 8.1.5., supra, and the number of attached cells was expressed as percent of control. The effect of 4 hr incubation in the presence of heparin, pentosan polysulfate, dextran sulfate, and dextran on adhesion of rat meningeal fibroplasts (RMF) and 3T3 cells to PLL is shown in FIG. 7.

[2] = test system: rat meningeal fibroblasts (RMF); assay: Colorimetric cell adhesion assay, RMF; assay type: cell-based; conditions: RMF on PLL; 4 hr incubation; FIG. 7
Experimental: Primary Cell Cultures. Primary cultures of rat meningeal fibroblasts (RMF) were obtained from P-3 rat pups. The tissue was removed from the animals and transferred to Leibovitz's L-15 with L-glutamine medium. The tissue was then cut into small pieces with a scalpel blade, enzymatically dissociated with 0.25% trypsin in Ca^2+/Mg^2+ free Hank's balanced salt solution (CMF-HBSS, Gibco Laboratories) for 20 minutes at 37° C., and mechanically triturated. The cells were rinsed with DMEM plus 10% FCS, concentrated by centrifugation and subsequently diluted in DMEM with 10% FCS for plating at 5.0×10^6 cells per 75 cm^2 flask. Adult rat sciatic nerve fibroblasts (RSF) were obtained by explantation of 1 mm sections of adult rat sciatic nerve.
as §2, §3

Row | Substance | IC100, minimum concentration causing 100% inhibition of neurite outgrowth (PC12 cells) | Sulfur Content (Sulfur content) | inhibition of scar formation (in words) [1] | TOTAL SCORE [1] | number of attached cells compared to untreated controls (3T3 cells) | number of attached cells compared to untreated controls [2]
1 | pentosan polysulfate [reference compound] | 3.9e-07 g/mL | 16.5% | partial inhibition | 5.0 ± 1.0 | decreased | decreased
2 | alginate | 3.1e-06 g/mL | 0% | marginal improvement | 7.3 ± 1.9 | – | –
3 | dermatan sulfate [Dermatan sulfate 90%] | 1.5e-05 g/mL | 6.0% | – | – | – | –
4 | hyaluronic acid [reference compound] | 0.0002 g/mL | 0.6-0.8% | no ability to inhibit scar formation | 9.3 ± 0.5 | – | –
5 | chondroitin sulfate A | 0.0005 g/mL | 5.6% | – | – | – | –
6 | keratan sulfate | – | 6.4% | – | – | – | –
